According to publication PMC10891682, “In Vitro Metabolism and In Vivo Pharmacokinetics Profiles of Hydroxy-α-Sanshool” (Toxics, 2024):
Several values for one entry are separate records, joined by “and”; a condition that tells them apart may be missing. Equal values may be shown once.

Assay: Plasma protein binding (equilibrium dialysis)
Format: in vitro ADME
Conditions: human plasma
Protocol: PPB assays were carried out using the HTD 96-well equilibrium DIALYZERTM (Htdialysis, Gales Ferry, CT, USA). […] Then, the (solution A) was titrated with the (solution B) to pH 7.4 to prepare the dialysis buffer (solution C). The quench solution (solution D) consisted of Alprazolam (100 nM) and Ketoprofen (2 μM) in acetonitrile.
Total 3 μL of testing plasm samples (dissolved in DMSO, 200 μM) was mixed with 597 μL of plasma (the final concentration was 1 μM). The dialysis membranes were pre-soaked with water (60 min), then with 20% ethanol (20 min), and with dialysis buffer (20 min). Both the plasm samples and the dialysis buffer are 100 μL. Then, the dialysis plate was sealed and incubated at 37 °C with 5% CO2 at 100 rpm for 6 h. After 6 hours’ incubation, 50 μL of samples of the dialysis buffer and plasma samples were collected and re-added to a 96-well plate. Then, 50 μL of blank plasma was added to buffer samples, and 50 μL PBS was added to plasma samples. Subsequently, 300 μL quench solution was added to precipitate protein.
Peak Area Ratio buffer chamber means the conc for free fraction;
Peak Area Ratio plasma chamber means the conc for both free and bound fraction;
Peak Area Ratio total sample means the conc for starting sample before incubation.

In the case of CC(=O)N1CCN(c2ccc(OCC3COC(Cn4ccnc4)(c4ccc(Cl)cc4Cl)O3)cc2)CC1 (stereo not shown) [Ketoconazole], the “Bound (%)” value (1 μM, 6 h dialysis, 37 °C) is reported as 98.53% and 98.53 ± 4.76%, the “Remaining at 6 h (%)” value (6 h) is reported as 110.91 ± 6.04% and the recovery at 6 h, 1 μM (pH 7.4, 1 μM, 6 h dialysis, 37 °C) is reported as 92.6 ± 7.48%. For the same compound, the fraction unbound at 6 h, 1 µM (pH 7.4, 1 μM, 6 h dialysis, 37 °C, read-out: Fu (%), unbound fraction) was 0.0147 ± 0.0068.
